# Reference: a melting point compilation (Tetko et al.; mined from patent text by program, amines drawn as free bases though some values may be those of a salt)
row,SMILES,melting point [°C]
1,CC(=O)Nc1ccc(OCCN2CCc3ccc([N+](=O)[O-])cc3CC2)cc1C,132 to 134
2,Cc1ccc2c(c1)NCc1ccccc1O2,84 to 86
3,O=C1CC[C@@H](C(=O)N[C@@H](Cc2c[nH]cn2)C(=O)N[C@@H](Cc2c[nH]c3ccccc23)C(=O)OCc2ccccc2)N1,250 to 252
4,CCCCCCCCCOc1ccc(-c2ccc(OCC(C)CC)nn2)cc1 (stereo unspecified),87
5,Cc1cccc(SCc2ccc3nc(NC4CCN(C)CC4)n(Cc4nc(C)ccc4O)c3c2)c1,202
6,Cn1c(=O)c(-c2ccc(Cl)cc2Cl)cc2c3cc(C=NO)ccc3n(C)c21,287 to 290
7,O=C(c1ccccc1)c1cc(Cl)ccc1-n1c(Br)nnc1CN1C(=O)c2ccccc2C1=O,202 to 204
8,OCC1OC(n2cnc3c(NC4CCCC4O)ncnc32)C(O)C1O (stereo unspecified),163 to 164
9,CC(C)(C)OC(=O)n1ccc2c([N+](=O)[O-])c(NC(=O)COCc3ccccc3)ccc21,145 to 146
10,c1ccc([C@H]2OC2(c2ccccc2)c2ccccc2)cc1,91 to 92
11,Cc1noc(NS(=O)(=O)c2ccc(C(C)C)cc2)c1Br,130 to 133
12,CCCc1ccc2nc(COc3ccc(F)c(C(N)=O)c3F)sc2c1,173 to 175
13,CCNc1ncccc1-c1cscc1-c1cccnc1F,127 to 129
14,COc1cccc2c1CCN([C@@H]1CN3CCC1CC3)C2=O,> 290
15,O=C1NC(=O)C(Nc2ccc(Cl)c3ccccc23)S1 (stereo unspecified),205 to 206
16,CCOC(=O)C(NC(C)=O)(C(=O)OCC)c1ccc(Cl)cn1,89 to 90
17,Cc1c(F)c(N2CCNC(C)C2)c(F)c2c1c(=O)c(C(=O)O)cn2C1CC1 (stereo unspecified),187 to 188
18,COC(=O)NNC(=O)Cl,55 to 58
19,O=C(c1ccccc1)N1CCN(c2ccccc2)CCn2c1nc1ccccc12,217 to 220
20,COCCCNc1cccc(Oc2ccc(-c3cn(C4CCOCC4)c4ncnc(N)c34)cc2)c1C#N,205 to 207
21,O=C(CCl)Nc1ccc2c(c1NC(=O)c1ccco1)C(=O)c1ccccc1C2=O,211 to 212
22,Cc1c(C)c2c(c(C)c1NC(=O)c1ccccc1)CC(C)(C)O2,263 to 265

row,SMILES,melting point [°C]
1,CC(C)COC(=O)Nc1ccc(C2(O)CCSCC2)cc1,150 to 151
2,CCCCCCCS(=O)(=O)c1nn2c(=O)c(C)c(F)nc2s1,143 to 146
3,O=C(c1ccc(CNc2ncnc3ccccc23)cc1)N1CCN(c2ncc(Cc3ccccc3)cn2)CC1,99 to 101
4,COc1ccccc1Oc1c(Cl)nc(N)nc1Cl,190
5,CCCCNC(=N)OC(=N)N(CCCC)c1cccc(-c2ccnc3c(C(=O)c4cccs4)cnn23)c1,180 to 181
6,O=C(O)c1c(Br)cc(OCc2ccccc2)cc1OCc1ccccc1,90 to 91
7,COc1cc2[nH]c3nc[nH]c(=O)c3c2cc1OC,296 to 298
8,Cc1cc(C)c(/C=C2\C(=O)N(CO)c3ccccc32)[nH]1,196 to 200
9,COc1c2c(c(OC)c(OC)c1OC)CCC(CCOc1ccc(Cl)cc1)CC2,98 to 102
10,COc1ccc2c(c1)CCC(CN1CCC(O)(Cc3ccc(C)cc3)CC1)C2 (racemic),91 to 94
11,CC(C)(C)C(=O)OCN1C(=O)CC2(C1=O)C(=O)N(Cc1ccc(Cl)c(Cl)c1)c1ccccc12 (stereo unspecified),134 to 135
12,CC1(c2cc(Cl)nnc2Cl)CC1(Cl)Cl (stereo unspecified),78 to 79
13,COc1ccc(N2CCN(c3ccc(OC)nc3-c3ccc(OC)cc3CO)CC2)cc1,163 to 165
14,COc1cc(Nc2c(C#N)cnc3cc(/C=C/CCN4CCN(C)CC4)c(OC)cc23)c(Cl)cc1Cl,142 to 143
15,O=C1CCCCC1Oc1ccc(-c2c(-c3ccccc3)nn3ccccc23)nn1 (stereo unspecified),214 to 216
16,CN(C)c1cc(F)c(S(=O)(=O)N(C)C)cc1-n1c(=O)cc(C(F)(F)F)n(C)c1=O,185 to 194
17,CCCCc1nc2c(N)nc3cc(CCc4ccccc4)ccc3c2n1CC(C)C,181 to 182
18,CC1(C)CCC(C(=O)O)c2ccccc21 (stereo unspecified),80 to 81
19,CN1CCN(C2CC3C4CCC5CC6OC6CC5(C)C4CCC3(C)C2O)CC1 (stereo unspecified),149 to 153
20,CC(C)N1CC(OCC2CC2)(C(F)(F)F)c2cc(Cl)ccc2NC1=O (stereo unspecified),170
21,O=C(Nc1ccc(Oc2ccc(Cl)cc2Cl)nc1)N1CCc2ccccc2CC1,154 to 155
22,CCCCc1nn2c(c1Cc1ccc(C(=O)O)cc1)CCCC2,148 to 150

# The next lines start with the values.
row,melting point [°C],SMILES
1,238 to 240,CCCCCc1cc2c(nc(O)n2CCc2ccccc2)c(N)n1
2,197 to 200,CC(C)c1ccc2[nH]c(C(=O)c3ccc(Cl)cc3)c(CC(=O)O)c2c1
3,116,CC[C@@]1(C=O)CCCN(CCc2c[nH]c3ccc(F)cc23)C1=O
4,111 to 114,CCON=C(CC)C1=C(O)CC(c2ccc(NC=O)cc2)CC1=O (stereo unspecified)
5,170 to 173,CC(C)(C)N1C(=O)c2cc([N+](=O)[O-])cnc2C1=O
6,88 to 110,CCOC(=O)c1c(S(=O)(=O)Nc2c(F)cccc2F)nn2c(C)cc(C)nc12
7,152 to 153,O=C(O)CCc1c(-c2ccccc2)noc1-c1ccccc1
8,93 to 96,C=CCCCCCCCCC(=O)N1CCN(c2cc(N3CCCC3)nc(N3CCCC3)n2)CC1
9,111 to 114,O=c1oc(-c2c(F)cccc2F)nn1-c1ccccc1Br
10,116 to 118,O=C(Nc1cccc(C(F)(F)F)c1)NC1CCN(S(=O)(=O)c2ccc(Cl)cc2)CC1
11,169 to 171,CC(C)c1cccc(C(C)C)c1NS(=O)(=O)CC(=S)Oc1c(C(C)C)cccc1C(C)C
12,198 to 200,CC(=NO)NC/C(F)=C\CC[C@H](N)C(=O)O
13,116 to 117,N#Cc1ccccc1Sc1nsc2ccccc12
14,48 to 51,Cc1ccc(C(C(=O)C(C)C)c2ccc(C)cc2)cc1
15,120 to 125,CC(NC(N)=C[N+](=O)[O-])C1=CCC=CC1 (stereo unspecified)
16,215,CCS(=O)(=O)C1(C(O)(Cn2cncn2)c2ccc(Cl)cc2)CC1 (stereo unspecified)
17,127 to 129,CCOC(=O)COc1ccc(C(=O)c2ccc(O)cc2)c(Cl)c1Cl
18,192 to 193,NC(=O)COc1ncc(Cl)c(N)c1Cl
19,196 to 198,Oc1ccc(-c2c(Cl)c3cc(O)ccc3n2Cc2ccc(OCCN3CCCCCC3)cc2)cc1
20,110 to 111,O=C(O)C(Cc1ccccc1F)Cc1ccccc1F
21,172 to 173,CCCCCCCCCCNC(=O)c1cc(NCC(=O)O)cc(C(=O)NCCCCCCCCCC)c1
22,184,CC1(c2cccc(NS(C)(=O)=O)c2)C2CN(C(=O)CCc3cccs3)CC21 (stereo unspecified)
23,99.5 to 101,COc1cc(C(=O)c2ccnn2C)c(Cl)c(Cl)c1OC
24,141 to 143,COc1ccc(CCC(=O)O)c(Cl)c1Cl
25,98,CC12CCC(=O)C=C1CCN(Cc1ccccc1)C2 (stereo unspecified)
26,147 to 150,O=C(NC(=O)C(c1ccccc1)c1ccccc1)OCCCc1ccncc1
27,150 to 151,O=C(O)COc1ccc(CC(Cc2ccccc2)NS(=O)(=O)c2ccc(Cl)cc2)cc1 (stereo unspecified)
